From patent publication US20250017938A1, “COMBINATION THERAPIES OF FASN INHIBITORS WITH THYROID HORMONE RECEPTOR AGONISTS” (Sagimet Biosciences Inc., priority 2023, published 2025)

How the values were obtained:
[1] = molecular target: FASN enzyme isolated from SKBr3 cells (Homo sapiens (Human), UniProt P49327); assay: FASN biochemical activity (fluorescence measurement of CoA release, CPM dye)
[2] = tested on: Male C57BL/6J Gubra-Amylin-MASH (GAN) diet-induced obese mice; assay: Gubra-Amylin-MASH (GAN) diet-induced obese mice with biopsy-confirmed MASH, 6 weeks treatment; format: in vivo, mouse; conditions: 6-week treatment; for response rate (RR) for reduction of NAS ≥2-points: TVB-3664 5 mg/kg, resmetirom 3 mg/kg PO QD
Method: This study was designed to evaluate FASN inhibitor alone and in combination with RES on liver histology in biopsy-confirmed MASH mice.
Method: Male C57BL/6J Gubra-Amylin-MASH (GAN) diet-induced obese mice with histologically confirmed NAS (≥5) and fibrosis stage (F1-F3) were randomized and treated with either TVB-3664 (a surrogate FASN inhibitor for denifanstat, 5 mg/kg, PO, QD) or resmetirom (RES; MGL-3196)(3 mg/kg, PO, QD) individually or in combination for 6 weeks (n=10-12 for each group, Gubra, Denmark). Treatment groups are NC (normal chow diet control); VEH (MASH vehicle control); FASN (TVB-3664, FASN inhibitor, surrogate for denifanstat); RES (resmetirom) and COMBO (combination of TVB-3664 and resmetirom).

[3] = tested on: primary isolated human stellate cells (HSC); assay: Primary human hepatic stellate cells stimulated with TGF-β1, total collagen (in vitro fibrosis study); format: cell-based; conditions: primary human hepatic stellate cells, 10 ng/ml TGF-β, 4 days
Method: Primary isolated human stellate cells (HSC) were investigated in the study. The cells were maintained under standard culture conditions and in established culture medium.
Study Model: Viability screening and in vitro fibrosis study, 24 well plate format, 4 day stimulation with recombinant human TGF-β1. In this study, 2.5 and 10 ng/ml TGF-β1 were used.
(§1) Primary HSCs were seeded on t=day-1 and cultured in 24 well plates for 24 hours. […] Cells were incubated for an additional 96 hours (t=day 4). Conditioned medium samples were collected for expression analysis of secreted proteins. All wells were used for an alamarBlue assay to assess cell viability/metabolic activity. A separate plate was used at t=day 0 as reference for the alamarBlue assay. Next, the cell-matrix fraction was collected for measurement of total collagen and cell protein levels.
Both test compounds were dissolved in DMSO. Working concentrations were prepared from a stock concentration that is 1000-fold that of the highest working concentration. All controls were incubated with the same DMSO concentration as that present in the highest working concentration.
Total Collagen assay was performed according to the manufacturer's protocol.
Total Protein assay, for use with the Total Collagen assay, was performed according to the manufacturer's protocol. Protein levels were used to correct for differences in cell contents between samples.
Significance of differences between the groups was calculated either parametrically or non-parametrically, using the computer program SPSS. For nonparametric calculations, a Kruskal-Wallis test for several independent samples was used, followed by a Mann-Whitney U-test for independent samples. For parametric calculations, a One-way ANOVA for multiple comparisons was used, followed by Dunnett or Bonferroni's correction.

[4] = tested on: Male Ldlr -/-. Leiden mice fed with fast food diet (FFD); assay: LDL receptor knockout (Ldlr-/-.Leiden) NASH mice on fast food diet, 10 weeks treatment; format: in vivo, mouse; conditions: for plasma ALT/AST / plasma total cholesterols / plasma triglycerides: TVB-3664 5 mg/kg, resmetirom 3 mg/kg PO QD alone or in combination, 4 weeks, sustained to 10 weeks; for LDL-C / VLDL-C: lipoprotein analysis
Method: This study was designed to evaluate FASN inhibitor alone and in combination with resmetirom on plasma biomarkers and liver histology in LDL receptor knockout (Ldlr−/−. Leiden) NASH mice. FASN inhibitor and resmetirom were also evaluated in vitro in hepatic stellate cells (HSCs) for direct anti-fibrotic effects.
Male Ldlr −/−. Leiden mice were fed with fast food diet (FFD) for 18 weeks to induce NASH features and treated with either TVB-3664 (a surrogate FASN inhibitor for denifanstat, 5 mg/kg, PO, QD) or THRb agonist resmetirom (MGL-3196, 3 mg/kg, PO, QD) alone or in combination for 10 weeks. Endpoints included liver enzymes, lipids and liver histology. Primary human HSCs were stimulated by TGF-b1 and treated with denifanstat or resmetirom at various concentrations (TNO, Netherlands).

[5] = tested on: primary isolated human stellate cells (HSC); assay: Primary human hepatic stellate cells stimulated with TGF-β1, PAI-1 secretion; format: cell-based; conditions: primary human HSCs, TGF-b1-stimulated
Method: as §1

NASH/MASH [6] = conditions: NASH/MASH trials; cited from earlier work
[7] = tested on: C57BL/6J mice fed a high-fat/fructose/cholesterol diet; assay: Reversal of established diet-induced, biopsy-confirmed NASH in mice (HFFCD 44 weeks + 8 weeks treatment); format: in vivo, mouse; conditions: pirfenidone co-administered with Compound 002-386, 8 weeks
Description: C57BL/6J mice were fed a high-fat/fructose/cholesterol diet (HFFCD) for 44 weeks. For an additional eight weeks, animals continued a high-fat/fructose/cholesterol diet and received oral once-per-day treatments of either Compound 002-386, the anti-fibrotic pirfenidone, both Compound 002-386 and pirfenidone, or vehicle control. At the end of the study, analyses included histological assessment (NAFLD Activity Score (NAS) and Fibrosis Stage), gene expression (liver) total triglyceride and cholesterol content (liver and plasma), levels of alanine transaminase (ALT), and aspartate transaminase (AST) in plasma and serum cytokine levels. […]
Blood and plasma assays (triglycerides (TG), total-cholesterol (TC), alanine transaminase (ALT), aspartate transaminase (AST)): Blood samples were collected in heparinized tubes and plasma was separated and stored at −80° C. until analysis. TG, TC, ALT, AST were measured using commercial kits (Roche Diagnostics, Germany) on the Cobas™ C-501 autoanalyzer according to the manufacturer's instructions.
NAFLD activity score (NAS) and fibrosis stage: Liver samples were fixed in formalin, paraffin embedded, and sections were stained with hematoxylin and eosin (H&E) and Sirius Red. Samples were scored for NAS and fibrosis stage (outlined below) using of the clinical criteria outlined by Kleiner et al. 2005. […]

NASH/MASH [8] = conditions: cited from earlier work

With N#Cc1ccc(C2(F)CCN(C(=O)c3ccc(Cl)c(NC(=O)c4ccc(N5CCC5)nc4)c3)CC2)nc1 [Compound 001-57] the IC50 [1] was 30 nM.

For CCc1cc(C)c(-c2ncc(C3CCOC3)[nH]2)cc1C(=O)N1CCC(c2ccc(C#N)cc2)CC1 (stereo not shown) [Compound 001-192], the IC50 [1] was 300 nM.

CCc1nnc(-c2cc(C(=O)N3CCC(c4ccc(C#N)cc4)CC3)c(C)cc2C2CC(F)(F)C2)o1 [Compound 001-231] showed an IC50 [1] of 300 nM.

Work on CC(C)CNC(=O)Nc1cc(C(=O)N2CCC(c3ccc(C#N)cn3)CC2)cnn1 [Compound 001-305] yielded an IC50 [1] of over 50000 nM.

With CC(C)c1cc(Oc2c(Cl)cc(-n3nc(C#N)c(=O)[nH]c3=O)cc2Cl)n[nH]c1=O [Compound A, resmetirom] the “lobular inflammation, 1-point RR” value [2] was 8%, the “steatosis, RR for 1-point reduction” value [2] was 50% and the collagen production [3] was “did not display the same effect”.

With COCc1[nH]c(C(F)(F)F)nc1-c1cc(C(=O)N2CC(c3ccc(C#N)cc3)C2)c(C)cc1C [TVB-3664] the “lobular inflammation, 1-point RR” value [2] was 42%, the “steatosis, RR for 1-point reduction” value [2] was 17% and the “response rate (RR) for reduction of NAS ≥2-points” value [2] was 33%. For the same molecule, the “plasma ALT/AST” value [4] was “rapidly reduced”, the plasma total cholesterols [4] was “rapidly reduced” and the plasma triglycerides [4] was “rapidly reduced”. For the same molecule, the LDL-C [4] was “significantly reduced” and the VLDL-C [4] was “significantly reduced”.

In the case of Cc1nnc(-c2cc(C(=O)N3CCC(c4ccc(C#N)cc4)CC3)c(C)cc2C2CCC2)[nH]1 [denifanstat], the collagen production [3] is given as “decreased”, the “plasminogen 1 (PAI-1) secretion” value [5] is given as “decreased” and the “liver fat and biomarkers associated with inflammation and fibrosis” value (NASH/MASH [6]) is given as “improvements in liver fat and biomarkers associated with inflammation and fibrosis”.

For Cc1ccc(=O)n(-c2ccccc2)c1 [pirfenidone], the liver fibrosis [7] was “further reduced liver fibrosis”.

With CC(C)c1cc(Oc2c(Cl)cc(-n3nc(C#N)c(=O)[nH]c3=O)cc2Cl)n[nH]c1=O [resmetirom] the “response rate (RR) for reduction of NAS ≥2-points” value [2] was 25%, the “plasma ALT/AST” value [4] was “rapidly reduced” and the plasma total cholesterols [4] was “rapidly reduced”. For the same molecule, the plasma triglycerides [4] was “rapidly reduced”, the LDL-C [4] was “significantly reduced” and the VLDL-C [4] was “significantly reduced”. For the same molecule, the “NASH/MASH resolution and fibrosis improvement” value (NASH/MASH [8]; Phase III clinical trial) was “significant NASH/MASH resolution and fibrosis improvement”, the histology response rates (NASH/MASH [8]; human, in vivo) was under 50% and the “plasminogen 1 (PAI-1) secretion” value [5] was “not”.
